Reference: US5693812A, “Polymorphic forms of an angiotensin II antagonist” (priority 1996, dated 1997)
Where “and” joins values, the source holds several entries; their conditions need not be identical. Equal values may be shown once. Where a name gives a salt, the structure may show the parent alone. One block for each molecule: values may come before it.

Key:
[1] = Solubility in crystallization solvent (water/methanol/isopropyl acetate); assay type: physicochemical; settings: 1:2:2 water/methanol/isopropyl acetate
Experimental: Step K: Preparation of 3-[2'-(N-Benzyl)sulfonamidobiphenyl-4-yl]methyl-5,7-dimethyl-2-ethyl-3H-imidazo[4,5-b]pyridine potassium salt--(Forms I, Id and W) [drawing 13] In a 72-L four-necked flask fitted with an overhead stirrer and a reflux condenser, 3-[2'-(N-benzyl)sulfonamidobiphenyl-4-yl]methyl-5,7-dimethyl-2-ethyl-3H-imidazo[4,5-b]pyridine 1 (5.04 kg, 9.6 mol), methanol (14.5 L) and water (2.5 L) are mixed. The slurry is warmed to 62° C. under a nitrogen atmosphere and 1.94M potassium hydroxide (4.96 L, 9.61 mol) is added to the slurry at 62° C. over 1.5 hours to provide a homogeneous solution. Isopropyl acetate (13.83 L) is then added at 65° C. and the mixture is warmed to 70° C. The homogeneous solution is filtered at 70° C. to remove any particulates that are present. The filtrate is diluted with isopropyl acetate (1.3 L), methanol (0.6 L) and water (0.1 L). […] The homogeneous mixture is cooled to 52° C. over 2 hours, whereupon potassium salt seed of form "I" (140 g) is added. This mixture becomes cloudy after 30 min. The mixture is aged for 10 hours at 52° C. The white slurry is cooled to 48° C. over 1 hour and stirred for 3 hours. […] The K-salt is considered dry when <0.05% methanol and isopropyl acetate are detected by ^1 H NMR. […] The water content can be monitored by TG analysis. […] The crystal form is monitored by X-ray analysis. […]

AT1 receptors = settings: background statement; cited from earlier work
AT2 binding sites = settings: background statement; cited from earlier work
[2] = Equilibrium solubility in water at room temperature; assay type: physicochemical
[3] = Thermogravimetric analysis (TGA) weight loss / water content; assay type: physicochemical; settings: for TG of the potassium salt: dried product, Example 1 Step K
Experimental: (§1) The crystal forms were characterized and evaluated by measuring the heats of solution or solution calorimetry, solubility data, x-ray powder diffraction patterns (XRPD), differential scanning calorimetry (DSC) and thermogravimetric analysis (TGA). Heats of solution at 30° C. were obtained in the Setaram C-80 calvet calorimeter with sample size of 7-13 mg dissolved into 5 ml of 88% DMSO 12% water for a final concentration of 1.4-2.6 mg/ml. XRPD patterns were recorded using an automated Siemens X-ray diffractometer with copper tube K alpha radiation. DSC and TGA were conducted using a Perkin Elmer series 7 instrument with a scan rate of 10° C./min over the temperature range of 30°-300° C. Utilizing these techniques the thermodynamic stability of the polymorphs of 3-[2'-(N-benzoyl)sulfonamidobiphenyl-4-yl]methyl-5,7-dimethyl-2-ethyl-3H-imidazo[4,5-b]pyridine potassium salt was determined.
Step K: Preparation of 3-[2'-(N-Benzyl)sulfonamidobiphenyl-4-yl]methyl-5,7-dimethyl-2-ethyl-3H-imidazo[4,5-b]pyridine potassium salt--(Forms I, Id and W) [drawing 13] In a 72-L four-necked flask fitted with an overhead stirrer and a reflux condenser, 3-[2'-(N-benzyl)sulfonamidobiphenyl-4-yl]methyl-5,7-dimethyl-2-ethyl-3H-imidazo[4,5-b]pyridine 1 (5.04 kg, 9.6 mol), methanol (14.5 L) and water (2.5 L) are mixed. The slurry is warmed to 62° C. under a nitrogen atmosphere and 1.94M potassium hydroxide (4.96 L, 9.61 mol) is added to the slurry at 62° C. over 1.5 hours to provide a homogeneous solution. Isopropyl acetate (13.83 L) is then added at 65° C. and the mixture is warmed to 70° C. The homogeneous solution is filtered at 70° C. to remove any particulates that are present. The filtrate is diluted with isopropyl acetate (1.3 L), methanol (0.6 L) and water (0.1 L). […] The homogeneous mixture is cooled to 52° C. over 2 hours, whereupon potassium salt seed of form "I" (140 g) is added. This mixture becomes cloudy after 30 min. The mixture is aged for 10 hours at 52° C. The white slurry is cooled to 48° C. over 1 hour and stirred for 3 hours. Finally, the crystallization mixture is cooled to 0° C. at a rate of 1° C./12.5 min. and aged for 2 hours at 0° C. […] The solid is centrifuged at 0° C. and displacement-washed with a mixture of 2:2:1 cold (0° C.) isopropyl acetate/methanol/water (5.65 L) followed by isopropyl acetate (2.3 L). The solid is semi-dried to a TG of 10-15% by spin drying. The mother liquors contain 21 wt % of 3-[2'-(N-benzyl)sulfonamidobiphenyl-4-yl]methyl-5,7-dimethyl-2-ethyl-3H-imidazo[4,5-b]pyridine potassium salt. At this stage, the crystal form of the product is form "W". The product is powdered by passing through a screen (size=12). The solid is dried by passing dry nitrogen over the solid under vacuum at 22° C. for 5 hours to yield 4.55 kg of 3-[2'-(N-benzyl)sulfonamidobiphenyl-4-yl]methyl-5,7-dimethyl-2-ethyl-3H-imidazo[4,5-b]pyridine potassium salt as the form "I" with a purity of 99.7% (assay-HClO4 titration) and TG of 7-10%. Generally, the wet cake consists of residual water, methanol and isopropyl acetate. The K-salt is considered dry when <0.05% methanol and isopropyl acetate are detected by ^1 H NMR. The product is further powdered by passing the solid through a Quadro Comil (model 197s, screen size=1143 mm round impeller) to yield 4.5 kg. The product is dried to a TG of 4.6-5.5% by the passage of dry nitrogen over the solid under vacuum at 22° C. After 10 hours, 4.24 kg (78%) of the potassium salt as the form "I" is obtained with a TG of […] (99.7 wt % by titration). The water content can be monitored by TG analysis. The TG of the potassium salt of form "I" is 4.6-5.5%. The crystal form is monitored by X-ray analysis. When the potassium salt is over dried, the crystal form converts to form "Id" (TG<4.6%). […]

[4] = Heat of solution by solution calorimetry (Setaram C-80); assay type: physicochemical
Experimental: The heat of solution of different crystal forms of 3-[2'-(N-benzoyl)sulfonamidobiphenyl-4-yl]methyl-5,7-dimethyl-2-ethyl-3H-imidazo[4,5-b]pyridine potassium salt were studied at 30° C. The heat of solution is a measure of the crystal lattice energy. […] Heats of solution had to be conducted in a solvent which dissolved the samples quickly without conversion to another polymorph. This really limited solvents which could be used. Dimethylsulfoxide was chosen for this reason. The heats of solution therefore have contributions from the lattice energy of the solid as well as heat of dilution of lattice water in dimethylsulfoxide. The calorimeter therefore produces a complex signal that has an exothermic contribution from the water and an additional contribution from the energy required to dissolve the crystal. […] Additional heats of solution were determined in a mixed solvent system of 88% dimethylsulfoxide and 12% water. This system was used to minimize the contribution of moisture to the heat of solution.
as §1, with “C.” for “C. Utilizing these techniques the thermodynamic stability of the polymorphs of 3-[2'-(N-benzoyl)sulfonamidobiphenyl-4-yl]methyl-5,7-dimethyl-2-ethyl-3H-imidazo[4,5-b]pyridine potassium salt was determined.”

[5] = Crystal form stability in water (XRPD of remaining solid); assay type: physicochemical; settings: room temperature, listed as I, potassium salt
Source text: [13) S. R. Byre. "Solid State Chemistry of Drugs." Academic Press, New York, 1982.] […] Recrystallization of any of these lots from solvents like ethanol, methanol, isopropanol, acetone, etc. gave new crystal forms different from the original forms. […] Solubility in water at room temperature was one of these techniques. The equilibrium solubility in water, at room temperature for five polymorphs (Forms "B", "C", "D", "F", and "G") were the same (Table 1). When the remaining solids were filtered, air dried or vacuum dried overnight at room temperature the XRPD patterns had changed from the initial patterns and all were exactly the same. These experiments indicate that all of the crystal forms converted in water at room temperature to a new crystalline form designated […].
The remaining form "I" solid after equilibrium solubility studies in water was removed by filtration and vacuum dried overnight at room temperature.
After the discovery of form "I", form "D" could no longer be isolated in our laboratory. TGA studies indicate that form "I" of 3-[2'-(N-benzoyl)sulfonamidobiphenyl-4-yl]methyl-5,7-dimethyl-2-ethyl-3H-imidazo[4,5-b]pyridine potassium salt is a dihydrate (FIG. 4).

[6] = Crystal form stability on heating; assay type: physicochemical; settings: about 216° C.
[7] = Hygroscopicity studies / exposure to humidity; assay type: physicochemical

solubility of the potassium salt at 0° C. ([1]; 0° C.): 15000 µg/mL | solubility of the potassium salt at 60° C. ([1]; 60° C.): 174000 µg/mL
Structure (SMILES): CCc1nc2c(C)cc(C)nc2n1Cc1ccc(-c2ccccc2S(=O)(=O)NC(=O)c2ccccc2)cc1 [3-[2'-(N-benzoyl)sulfonamidobiphenyl-4-yl]methyl-5,7-dimethyl-2-ethyl-3H-imidazo[4,5-b]pyridine potassium salt]
affinity for AT1 receptors (AT1 receptors): high affinity | affinity for AT2 binding sites (AT2 binding sites): low affinity

Solubility in water ([2]; room temperature, Table I, potassium salt): 8000 ± 400 µg/mL | solubility thermodynamic ([2]; water, pH 7.8 printed for the other crystal forms): 8000 µg/mL | % Weight Loss (Δ 30-150° C. by TGA) ([3]; 30-150° C., listed as I, potassium salt): 4.1-5.9% | hydration state ([3]; TGA, listed as I, potassium salt): dihydrate | TG of the potassium salt ([3]; listed as I): 4.6-5.5% and 6.1% and 7-10% | ΔH solution 88% DMSO/12% H2O ([4]; 88% DMSO/12% H2O, 30° C., listed as I, potassium salt): -25.68 ± 2.67 J/g | heat of solution, ranking ([4]; 88% dimethylsulfoxide and 12% water): most endothermic | ΔH solution DMSO at 30° C. ([4]; DMSO, 30° C., listed as I, potassium salt): -8.56 ± 1.64 J/g | heat of solution, ranking ([4]; dimethylsulfoxide, 30° C.): most endothermic | thermodynamic stability ([4]; from heats of solution and equilibrium solubility, listed as I, potassium salt): thermodynamically stable crystal form | crystal form after suspension in water [5]: remained unchanged | crystal form after heating to about 216° C. [6]: converted to form H | hygroscopicity ([7]; relative humidities of 47% and above): non-hygroscopic
Structure (SMILES): CCc1nc2c(C)cc(C)nc2n1Cc1ccc(-c2ccccc2S(=O)(=O)NC(=O)c2ccccc2)cc1 [Form I, 3-[2'-(N-benzoyl)sulfonamidobiphenyl-4-yl]methyl-5,7-dimethyl-2-ethyl-3H-imidazo[4,5-b]pyridine potassium salt]

TG of the potassium salt ([3]; listed as Id): < 4.6% | reconversion upon exposure to ambient humidity ([7]; ambient humidity): reconverted to form "I"
Structure (SMILES): CCc1nc2c(C)cc(C)nc2n1Cc1ccc(-c2ccccc2S(=O)(=O)NC(=O)c2ccccc2)cc1 [Form Id, 3-[2'-(N-benzoyl)sulfonamidobiphenyl-4-yl]methyl-5,7-dimethyl-2-ethyl-3H-imidazo[4,5-b]pyridine potassium salt]
